Experimental data as given in US20230212549A1, “COMPOUNDS COMPRISING A […] LIGAND AND USE THEREOF” (priority 2021, published 2023).
pIC50, pKd: −log10 of the molar value. Numbered stars: 1 amine (or outer) side, 2 acyl side, 3 side chain; on linkers, the order of the positions; unused ones are H or OH. Bridge positions count the residues as written; N and C are the ends. Square brackets hold non-standard residues; d marks the D form. Peptide text beside a SMILES is read from it. * marks the point of attachment. ξ: configuration not given here. X7 = O=C(CCP(=O)(O)CN1CCN(CP(=O)(O)CO)CCN(CP(=O)(O)CO)CC1)NCCSCc1cc(C[*:1])cc(C[*:2])c1; X6 = NCCNCC(CNCCN)C(=O)NCCOCCOCCOCCOCCOCCOCCC(=O)NCCCOCCOCCOCCCN*; mXylylene = c1cc(C[*:1])cc(C[*:2])c1; Suc = O=C(CCC(=O)[*:2])[*:1]; Nle = CCCC[C@H](N)C(=O)O; CO = O=C([*:1])[*:2]; ξC = NC(CS)C(=O)O; NHBu = CCCCN*

Key:
Human recombinant FAP [1] = biological target: T1, Human recombinant FAP (Homo sapiens, UniProt Q12884); assay: FRET-based FAP protease activity assay; assay type: biochemical; parameters: purchased R&D systems 3715-SE
T1 sequence (Q12884 whole entry): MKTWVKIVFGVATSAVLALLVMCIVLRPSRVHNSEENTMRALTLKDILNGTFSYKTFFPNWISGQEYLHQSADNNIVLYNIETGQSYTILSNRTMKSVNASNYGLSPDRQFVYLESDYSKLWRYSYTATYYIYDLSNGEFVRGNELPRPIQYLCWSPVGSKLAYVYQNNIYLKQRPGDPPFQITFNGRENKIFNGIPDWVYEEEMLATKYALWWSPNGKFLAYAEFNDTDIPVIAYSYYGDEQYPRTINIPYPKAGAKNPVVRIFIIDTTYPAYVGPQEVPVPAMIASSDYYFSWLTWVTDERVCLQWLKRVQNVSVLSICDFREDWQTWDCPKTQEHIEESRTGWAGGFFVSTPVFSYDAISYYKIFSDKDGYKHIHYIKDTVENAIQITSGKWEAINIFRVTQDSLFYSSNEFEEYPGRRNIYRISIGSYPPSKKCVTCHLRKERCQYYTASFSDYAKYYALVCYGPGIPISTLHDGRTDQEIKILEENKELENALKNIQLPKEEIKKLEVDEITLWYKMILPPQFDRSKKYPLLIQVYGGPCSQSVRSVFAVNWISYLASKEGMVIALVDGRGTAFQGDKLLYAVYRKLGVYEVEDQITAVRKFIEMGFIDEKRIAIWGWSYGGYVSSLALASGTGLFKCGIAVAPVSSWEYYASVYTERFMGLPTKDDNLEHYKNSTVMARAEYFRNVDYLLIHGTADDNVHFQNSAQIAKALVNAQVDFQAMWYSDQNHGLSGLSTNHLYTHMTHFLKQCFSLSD

in vivo [2] = conditions: swiss nude, mouse, iv
[3] = biological target: T2, FAP-expressing human WI-38 fibroblasts (Homo sapiens, UniProt Q12884); assay: Competitive FACS binding assay
T2 construct: FAP-expressing human WI-38 fibroblasts (ECACC) were cultured in EMEM; host or cells: WI-38 human fibroblasts
T2 sequence (Q12884 whole entry): as above
Description: Cells were analyzed in an Attune NxT flow cytometer. […] […].
Cells were analyzed in an Attune NxT flow cytometer. […]

[4] = Radiochemical purity by HPLC of ^99mTc-labeled compounds; assay type: physicochemical; conditions: 99Tc-labeled compounds
Description: 100-500 MBq of ^99mTcO4 (in saline) were mixed with 11 μl of 0.5 M phosphate buffer pH 11.5-12.0 and 1.1 μl of 0.1 M trisodium citrate per 100 μl radionuclide solution. […] The mixture was incubated for 30 min at 25-50′° C. At the end of the incubation time, the mixture was neutralized with 3.0 μl 1 M HCl per 10 μl phosphate buffer and TWEEN-20 was added at a final concentration of 0.100.

Human recombinant FAP [5] = biological target: T1, Human recombinant FAP; assay: Surface plasmon resonance (Biacore) assay; assay type: binding
in vivo [6] = conditions: female, athymic nude, mouse, iv
[7] = pIC50 Category (Activity), FRET-peptide substrate, 37° C.
[8] = pIC50 Category (activity), Recombinant human FAP
[9] = blood pool surrogate (BPS), uptake BPS 0.25 h, ^68Ga-labeled, BPS (blood pool surrogate), PET/CT, 0.25 h post tracer injection
[10] = blood pool surrogate (BPS), uptake BPS 1 h, ^68Ga-labeled, BPS (blood pool surrogate), PET/CT, 1 h post tracer injection
[11] = blood pool surrogate (BPS), uptake BPS 3 h, ^68Ga-labeled, BPS (blood pool surrogate), PET/CT, 3 h post tracer injection
[12] = kidneys, uptake Kidneys 0.25 h, ^68Ga-labeled, PET/CT, 0.25 h post tracer injection
[13] = kidneys, uptake Kidneys 1 h, ^68Ga-labeled, PET/CT, 1 h post tracer injection
[14] = kidneys, uptake Kidneys 3 h, ^68Ga-labeled, PET/CT, 3 h post tracer injection
[15] = tumor, uptake Tumor 0.25 h, ^68Ga-labeled, HEK-FAP tumor, PET/CT, 0.25 h post tracer injection
[16] = tumor, uptake Tumor 1 h, ^68Ga-labeled, HEK-FAP tumor, PET/CT, 1 h post tracer injection
[17] = tumor, uptake Tumor 3 h, ^68Ga-labeled, HEK-FAP tumor, PET/CT, 3 h post tracer injection

Structure (SMILES)	tissue uptake at 1 h (in vivo [2]; blood pool surrogate (BPS))	tissue uptake at 3 h (in vivo [2]; blood pool surrogate (BPS))	tissue uptake at 6 h (in vivo [2]; blood pool surrogate (BPS))	tissue uptake at 1 h (in vivo [2]; kidneys)	tissue uptake at 3 h (in vivo [2]; kidneys)	tissue uptake at 6 h (in vivo [2]; kidneys)	tissue uptake at 1 h (in vivo [2]; tumor)	tissue uptake at 3 h (in vivo [2]; tumor)	tissue uptake at 6 h (in vivo [2]; tumor)	pIC50 [3]	HPLC Area % at end of synthesis [4]	pIC50 (Human recombinant FAP [1]; [8])	pKd (Human recombinant FAP [5])	also measured
CCCCNC(=O)N[C@H]1CSCc2cc(cc(CN3CCN(C(=O)C(CNCCN)CNCCN)CC3)c2)CSC[C@@H](C(=O)O)NC(=O)[C@H](Cc2ccccc2)NC(=O)[C@H](CCC(N)=O)NC(=O)[C@H]([C@@H](C)O)NC(=O)[C@@H]2CCCN2C(=O)[C@@H]2CCCN2C1=O [3BP-4533, nBu-CAyl-[Cys(tMeBn(N4Ac-PP))-Pro-Pro-Thr-Gln-Phe-Cys]-OH]	1.72 %ID/g	1.46 %ID/g	0.86 %ID/g	6.04 %ID/g	4.43 %ID/g	3.04 %ID/g	5.45 %ID/g	6.27 %ID/g	6.75 %ID/g	> 8.00	99.3%			pIC50 (Human recombinant FAP [1]; [7]): > 8.00; HPLC Area % appr. 4 h post end of synthesis ([4]; (3 h)): 98.2%
CCCCNC(=O)N[C@H]1CSCc2cc(CSCCNC(=O)C(CNCCN)CNCCN)cc(c2)CSC[C@@H](C(=O)O)NC(=O)[C@H](Cc2ccccc2)NC(=O)[C@H](CCC(N)=O)NC(=O)[C@H]([C@@H](C)O)NC(=O)[C@@H]2CCCN2C(=O)[C@@H]2CCCN2C1=O [3BP-4534, nBu-CAyl-[Cys(tMeBn(N4Ac-AET))-Pro-Pro-Thr-Gln-Phe-Cys]-OH]	1.7 %ID/g	1.19 %ID/g	0.78 %ID/g	2.06 %ID/g	1.4 %ID/g	1.09 %ID/g	5.67 %ID/g	6.85 %ID/g	7.68 %ID/g	> 8.00	98.6%			pIC50 (Human recombinant FAP [1]; [7]): > 8.00; HPLC Area % appr. 4 h post end of synthesis ([4]; (3 h)): 97.5%
CCCC[C@H](NC(=O)CCC(=O)NCCCOCCOCCOCCCNC(=O)CCOCCOCCOCCOCCOCCOCCNC(=O)C(CNCCN)CNCCN)C(=O)N[C@H]1CSCc2cccc(c2)CSCC(C(=O)O)NC(=O)[C@H](Cc2ccccc2)NC(=O)[C@H](CCC(N)=O)NC(=O)[C@H]([C@@H](C)O)NC(=O)[C@@H]2CCCN2C(=O)[C@@H]2CCCN2C1=O (stereo partly drawn) [3BP-4552, N4Ac-PEG6-Ttds-Nle-[Cys(3MeBn)-Pro-Pro-Thr-Gln-Phe-Cys]-OH]	0.52 %ID/g	0.14 %ID/g	0.07 %ID/g	3.17 %ID/g	3.4 %ID/g	1.34 %ID/g	7.92 %ID/g	6.86 %ID/g	5.21 %ID/g	7.10 to 8.00	88.3%	7.10 to 8.00		
CCCCNC(=O)N[C@H]1CSCc2cc(CSCCNC(=O)CCP(=O)(O)CN3CCN(CP(=O)(O)CO)CCN(CP(=O)(O)CO)CC3)cc(c2)CSCC(C(=O)O)NC(=O)[C@H](Cc2ccccc2)NC(=O)[C@H](CCC(N)=O)NC(=O)[C@H]([C@@H](C)O)NC(=O)[C@@H]2CCCN2C(=O)[C@@H]2CCCN2C1=O (stereo partly drawn) [3BP-4768, nBu-CAyl-[Cys(tMeBn(NOPO-AET))-Pro-Pro-Thr-Gln-Phe-Cys]-OH]										> 8.00		> 8.00	> 8.00	tissue uptake at 0.25 h (in vivo [6]; [9]): 2.54 %ID/g; tissue uptake at 1 h (in vivo [6]; [10]): 0.78 %ID/g; tissue uptake at 3 h (in vivo [6]; [11]): 0.27 %ID/g; tissue uptake at 0.25 h (in vivo [6]; [12]): 18.4 %ID/g; tissue uptake at 1 h (in vivo [6]; [13]): 2.45 %ID/g; tissue uptake at 3 h (in vivo [6]; [14]): 0.67 %ID/g; tissue uptake at 0.25 h (in vivo [6]; [15]): 7.82 %ID/g; tissue uptake at 1 h (in vivo [6]; [16]): 9.42 %ID/g; tissue uptake at 3 h (in vivo [6]; [17]): 9.2 %ID/g
CCCC[C@H](NC(=O)CCC(=O)NCCCOCCOCCOCCCNC(=O)CN1CCN(C(=O)C(CNCCN)CNCCN)CC1)C(=O)N[C@H]1CSCc2cncc(c2)CSCC(C(=O)O)NC(=O)[C@H](Cc2ccccc2)NC(=O)[C@H](CCC(N)=O)NC(=O)[C@H]([C@@H](C)O)NC(=O)[C@@H]2CCCN2C(=O)[C@@H]2CCCN2C1=O (stereo partly drawn) [3BP-4774, N4Ac-PPAc-Ttds-Nle-[Cys(3Lut)-Pro-Pro-Thr-Gln-Phe-Cys]-OH]	0.08 %ID/g	0.06 %ID/g	0.03 %ID/g	1.87 %ID/g	0.85 %ID/g	0.48 %ID/g	6.14 %ID/g	3.7 %ID/g	1.74 %ID/g	7.10 to 8.00	88.8%	7.10 to 8.00		HPLC Area % appr. 4 h post end of synthesis [4]: 86.1%
CCCCNC(=O)N[C@H]1CSCc2cc(CSCCNC(=O)CCP(=O)(O)CN3CCN(CP(=O)(O)CO)CCN(CP(=O)(O)CO)CC3)cc(c2)CSCC(C(=O)O)NC(=O)[C@H](Cc2ccccc2)NC(=O)[C@H](CCC(=O)O)NC(=O)[C@H]([C@@H](C)O)NC(=O)[C@@H]2CCCN2C(=O)[C@@H]2CCCN2C1=O (stereo partly drawn) [3BP-4778, nBu-CAyl-[Cys(tMeBn(NOPO-AET))-Pro-Pro-Thr-Glu-Phe-Cys]-OH] ({NHBu-CO}-CPPTEF[ξC]-OH; linker 1-7 via X7)										> 8.00		> 8.00	> 8.00	tissue uptake at 0.25 h (in vivo [6]; [9]): 1.61 %ID/g; tissue uptake at 1 h (in vivo [6]; [10]): 0.77 %ID/g; tissue uptake at 3 h (in vivo [6]; [11]): 0.33 %ID/g; tissue uptake at 0.25 h (in vivo [6]; [12]): 3.38 %ID/g; tissue uptake at 1 h (in vivo [6]; [13]): 1.81 %ID/g; tissue uptake at 3 h (in vivo [6]; [14]): 1 %ID/g; tissue uptake at 0.25 h (in vivo [6]; [15]): 3.66 %ID/g; tissue uptake at 1 h (in vivo [6]; [16]): 4.06 %ID/g; tissue uptake at 3 h (in vivo [6]; [17]): 4.45 %ID/g
CCCC[C@H](NC(=O)CCC(=O)NCCCOCCOCCOCCCNC(=O)CCOCCOCCOCCOCCOCCOCCNC(=O)C(CNCCN)CNCCN)C(=O)N[C@H]1CSCc2cccc(c2)CSC[C@@H](C(=O)O)NC(=O)[C@H](Cc2ccccc2)NC(=O)[C@H](CCC(=O)O)NC(=O)[C@H]([C@@H](C)O)NC(=O)[C@@H]2CCCN2C(=O)[C@@H]2CCCN2C1=O [3BP-4780, N4Ac-PEG6-Ttds-Nle-[Cys(3MeBn)-Pro-Pro-Thr-Glu-Phe-Cys]-OH] ({X6-Suc}-[Nle]CPPTEFC-OH; linker 2-8 via mXylylene)	0.81 %ID/g	0.61 %ID/g	0.43 %ID/g	8.11 %ID/g	6.14 %ID/g	4.36 %ID/g	6.71 %ID/g	7.01 %ID/g	7.92 %ID/g	7.10 to 8.00	95.0%	> 8.00		HPLC Area % appr. 4 h post end of synthesis [4]: 92.3%
CCCC[C@H](NC(=O)CCC(=O)NCCCOCCOCCOCCCNC(=O)CN1CCN(CC(=O)O)CCN(CC(=O)O)CC1)C(=O)N[C@H]1CSCc2cccc(c2)CSCC(C(=O)O)NC(=O)[C@H](Cc2ccccc2)NC(=O)[C@H](CCC(N)=O)NC(=O)[C@H]([C@@H](C)O)NC(=O)[C@@H]2CCCN2C(=O)[C@@H]2CCCN2C1=O (stereo partly drawn) [3BP-5201, NOTA-Ttds-Nle-[Cys(3MeBn)-Pro-Pro-Thr-Gln-Phe-Cys]-OH]										> 8.00		7.10 to 8.00	> 8.00	tissue uptake at 0.25 h (in vivo [6]; blood pool surrogate (BPS)): 2.31 %ID/g; tissue uptake at 1 h (in vivo [6]; blood pool surrogate (BPS)): 0.85 %ID/g; tissue uptake at 3 h (in vivo [6]; blood pool surrogate (BPS)): 0.38 %ID/g; tissue uptake at 0.25 h (in vivo [6]; kidneys): 9.27 %ID/g; tissue uptake at 1 h (in vivo [6]; kidneys): 1.97 %ID/g; tissue uptake at 3 h (in vivo [6]; kidneys): 1 %ID/g; tissue uptake at 0.25 h (in vivo [6]; tumor): 5.56 %ID/g; tissue uptake at 1 h (in vivo [6]; tumor): 6.3 %ID/g; tissue uptake at 3 h (in vivo [6]; tumor): 6.25 %ID/g
CCCCNC(=O)N[C@H]1CSCc2cc(CSCCNC(=O)CN3CCN(CC(=O)O)CCN(CC(=O)O)CC3)cc(c2)CSCC(C(=O)O)NC(=O)[C@H](Cc2ccccc2)NC(=O)[C@H](CCC(N)=O)NC(=O)[C@H]([C@@H](C)O)NC(=O)[C@@H]2CCCN2C(=O)[C@@H]2CCCN2C1=O (stereo partly drawn) [3BP-5210, nBu-CAyl-[Cys(tMeBn(NOTA-AET))-Pro-Pro-Thr-Gln-Phe-Cys]-OH]										> 8.00		> 8.00	> 8.00	tissue uptake at 0.25 h (in vivo [6]; blood pool surrogate (BPS)): 2.72 %ID/g; tissue uptake at 1 h (in vivo [6]; blood pool surrogate (BPS)): 0.68 %ID/g; tissue uptake at 3 h (in vivo [6]; blood pool surrogate (BPS)): 0.14 %ID/g; tissue uptake at 0.25 h (in vivo [6]; kidneys): 37.3 %ID/g; tissue uptake at 1 h (in vivo [6]; kidneys): 5.61 %ID/g; tissue uptake at 3 h (in vivo [6]; kidneys): 0.42 %ID/g; tissue uptake at 0.25 h (in vivo [6]; tumor): 7.48 %ID/g; tissue uptake at 1 h (in vivo [6]; tumor): 8.9 %ID/g; tissue uptake at 3 h (in vivo [6]; tumor): 9.53 %ID/g
